Measurements published in paper PMC6270570, “New Flurbiprofen Derivatives: Synthesis, Membrane Affinity and Evaluation of in Vitro Effect on β-Amyloid Levels” (Molecules, 2013).
Read-outs that look alike come from different tables or passages of the source.

Legend:
[1] = IAM-HPLC affinity for membrane phospholipids (logKIAM/W); type: physicochemical; conditions: IAM.PC.MG column, pH 7.0 phosphate buffer/acetonitrile, extrapolated to 100% aqueous eluent
Method: n-Octanol/water partition coefficients were theoretically calculated by the program clogP for windows version 2.0 (Biobyte Corp., Claremont, CA, USA). Affinity for membrane phospholipids, so called “phospholipophilicity”, was measured by HPLC on a phospholipid stationary phase. […] liquid chromatograph (Waters-Millipore, Milford, MA, USA), equipped with a 7125 Rheodyne injection valve and a 486 UV detector (Waters) set at 246 nm, was used. The column was an IAM.PC.MG (Immobilized Artificial Membrane-PhosphatidylCholine-MethylGlycolate) (4.6 mm × 150 mm) (Regis Chemical Company, Morton Grove, IL, USA). The mobile phase was 0.01 M phosphate buffer at pH 7.0 and acetonitrile at percentages ranging from 10 to 35 percent (v/v) (from 1.0 to 4.0 mL/min). The chromatography was carried out at room temperature. All samples were dissolved in methanol (ca. 10^-3 M) and 20 μL samples were injected in the chromatograph. Chromatographic retention data are expressed as the logarithm of the capacity factor, log k, defined as: log k = log [(tr - t0)/t0] (1) where tr and t0 are the retention times of the drug and a non-retained compound (citric acid), respectively. The log k values relative to 100% aqueous eluent (logKIAM/W) were calculated by performing a polycratic method of extrapolation. Each compound was eluted with at least three different mobile phases containing acetonitrile in different percentages (φ). […] All values of log k reported are the average of at least three measurements; the 95% confidence interval never exceeded 0.04 for each log k value. Possible occurrence of retention changes due to column aging was monitored by checking the retention times of five test compounds (amlodipine, p-nitroaniline, toluene, isradipine, and ketoprofen).

[2] = PAMPA-BBB permeability (porcine polar brain lipid extract); type: in vitro ADME; conditions: PAMPA
Method: (§1) The following protocol was applied to measure the Pe through the artificial membrane to predict oral absorption and BBB permeation. In order to study the g.i. permeability, a 2% solution (w/v) of egg lecithin (phosphatidyl choline > 98%, PC) in dodecane was employed as an artificial membrane solution. The effective permeability of BBB was measured using phospholipid mixture from porcine polar brain lipid extract, composed by PC 12.6%, phosphatidylethanolamine (PE) 33.1%, phosphatidylserine (PS) 18.5%, phosphatidylinositol (PI) 4.1%, phospatidic acid (PA) 0.8% and 30.9% of other compounds (purchased from Avantis Polar Lipids, Alabaster, AL, USA). Each donor filtration plate well was then impregnated with 5 µL of this solution carefully, and immediately after 150 µL of phosphate buffer (pH 7.4/pH 6.5), containing co-drug 1 500 µM and iPrOH 20% as co-solvent was added. Then the drug-filled donor plate was placed into the acceptor plate that had been prefilled with the same buffer (300 µL) as acceptor solution. After plate lid was replaced, the resulting assembled donor-acceptor plates were incubated at r.t. for 2 h for PAMPA-GI and 18 h for PAMPA-BBB, following which drugs concentration in the acceptor and donor solutions were determined by HPLC [37].
(§2) Log Pe can be calculated from the equation below: [drawing 10] (2) where Pe is the effective permeability coefficient (cm x s^−1), VD is volume of donor compartment (0.15 cm^3) and VA is volume of acceptor compartment (0.30 cm^3), A is effective filter area (0.28 cm^2), t is incubation time for the assay (s), Cacceptor is the concentration of the compound in the acceptor compartment at the completion of the assay, and Cequilibrium is the concentration of compound at theoretical equilibrium.

Aβ-42 = assay: Western blotting of Aβ-42 expression in CTXTNA2 astrocytes (in vitro γ-secretase activity); type: cell-based, rat; conditions: 24 h
Method: CTXTNA2 cell line, established from primary cultures of type 1 astrocytes from brain frontal cortex tissue of 1 day old rats, was obtained by ECACC (Salisbury, UK). Cells have been maintained in DMEM, 10% FBS at 37 °C, 5% CO2 until sub-confluence and incubated for 24 h with a DMSO solution of drug (concentrations ranging from 1 µM to 100 µM). For detection of cell viability, a Trypan blue dye exclusion test has been performed.
Cell lysates (20 µg) have been electrophoresed and transferred to nitrocellulose membrane. Nitrocellulose membranes, blocked in 5% non-fat milk, 10 mmol/L Tris pH 7.5, 100 mmol/L NaCl, 0.1% Tween-20, have been probed with mouse APP (Millipore, Billerica, MA, USA) and Aβ (Alpha Diagnostic Intl, San Antonio, TX, USA) monoclonal antibodies (Santa Cruz Biotechnology, Santa Cruz, CA, USA), then incubated in the presence of specific enzyme conjugated IgG horseradish peroxidase. Immunoreactive bands have been detected by ECL detection system (Amersham Intl., Buckinghamshire, UK) and analysed by densitometry. Densitometric values, expressed as Integrated Optical Intensity (I.O.I.), have been estimated in a CHEMIDOC XRS system by the QuantiOne 1-D analysis software (BioRad, Richmond, CA, USA). Values obtained have been normalized basing on densitometric values of internal β tubulin. Statistical analysis has been performed using the analysis of variance (ANOVA). Results have been expressed as mean ± SD. Values of p < 0.05 have been considered statistically significant.

APP = conditions: 24 h
Method: For detection of cell viability, a Trypan blue dye exclusion test has been performed [33].
Cell lysates (20 µg) have been electrophoresed and transferred to nitrocellulose membrane. […] Immunoreactive bands have been detected by ECL detection system (Amersham Intl., Buckinghamshire, UK) and analysed by densitometry. Densitometric values, expressed as Integrated Optical Intensity (I.O.I.), have been estimated in a CHEMIDOC XRS system by the QuantiOne 1-D analysis software (BioRad, Richmond, CA, USA). Values obtained have been normalized basing on densitometric values of internal β tubulin. Statistical analysis has been performed using the analysis of variance (ANOVA). Results have been expressed as mean ± SD. Values of p < 0.05 have been considered statistically significant.

[3] = PAMPA-GI permeability (egg lecithin in dodecane); type: in vitro ADME; conditions: read-out: PAMPA-GI Pe
Method: as §1, §2

[4] = pH 7.4, 18 h of incubation, read-out: PAMPA-BBB Pe

SMILES | LogKIAM/W [1] | Papp at 18 h, 500 µM ([2]; read-out: Pe, BBB penetration) [×10⁻⁶ cm/s] | Expression of Aβ-42 (Aβ-42; 1 µM) | Expression of Aβ-42 (Aβ-42; 10 µM) | Expression of Aβ-42 (Aβ-42; 100 µM) | melting point [°C] | Expression of APP (APP; 1 µM) | Expression of APP (APP; 10 µM) | Expression of APP (APP; 100 µM) | Aβ-42 production, effect in words (Aβ-42; 1 µM to 100 µM, without affecting the APP level) | Papp at 2 h, 500 µM ([3]; pH 6.5, 2 h of incubation) [×10⁻⁶ cm/s] | Papp at 2 h, 500 µM ([3]; pH 7.4, 2 h of incubation) [×10⁻⁶ cm/s] | Papp at 18 h, 500 µM [2, 4] [×10⁻⁶ cm/s]
C[C@@H](C(=O)N[C@H]1C(=O)N(C)c2ccccc2-c2ccccc21)c1ccc(-c2ccccc2)c(F)c1 [Compound 4, (2R)-2-(2-Fluoro-1,1'-biphenyl-4-yl)-N-[(7R)-5-methyl-6-oxo-6,7-dihydro-5H-dibenzo[b,d]azepin-7-yl]propanamide] | 3.21 | ≥ 4 | (11.0 ± 0.4) × 10^−2 | (12.1 ± 0.4) × 10^−2 | (16.2 ± 0.7) × 10^−2 | 100 to 103 | (51.3 ± 2.6) × 10^−2 | (39.9 ± 1.6) × 10^−2 | (60.1 ± 2.7) × 10^−2 | – | – | – | –
C[C@@H](C(=O)N[C@@H]1C(=O)N(C)c2ccccc2-c2ccccc21)c1ccc(-c2ccccc2)c(F)c1 [Compound 5, (2R)-2-(2-Fluoro-1,1'-biphenyl-4-yl)-N-[(7S)-5-methyl-6-oxo-6,7-dihydro-5H-dibenzo[b,d]azepin-7-yl]propanamide] | 3.93 | – | (17.4. ± 0.3) × 10^−2 | (17.1 ± 0.6) × 10^−2 | (17.4. ± 0.5) × 10^−2 | 102 to 103 | (41.1 ± 1.7) × 10^−2 | (44.2 ± 2.1) × 10^−2 | (49.2 ± 3.2) × 10^−2 | – | – | – | –
C[C@H](C(=O)N[C@H]1C(=O)N(C)c2ccccc2-c2ccccc21)c1ccc(-c2ccccc2)c(F)c1 [Compound 6, (2S)-2-(2-Fluoro-1,1'-biphenyl-4-yl)-N-[(7R)-5-methyl-6-oxo-6,7-dihydro-5H-dibenzo[b,d]azepin-7-yl]propanamide] | 3.93 | – | (19.0 ± 0.6) × 10^−2 | (16.2 ± 0.5) × 10^−2 | (13.4 ± 0.7) × 10^−2 | 104 to 105 | (11.3 ± 0.4) × 10^−2 | (10.4 ± 0.2) × 10^−2 | (13.5 ± 0.5) × 10^−2 | – | – | – | –
C[C@H](C(=O)N[C@@H]1C(=O)N(C)c2ccccc2-c2ccccc21)c1ccc(-c2ccccc2)c(F)c1 [Compound 7, (2S)-2-(2-Fluoro-1,1'-biphenyl-4-yl)-N-[(7S)-5-methyl-6-oxo-6,7-dihydro-5H-dibenzo[b,d]azepin-7-yl]propanamide] | 3.21 | ≥ 4 | (12.4. ± 0.1) × 10^−2 | (11.1 ± 0.3) × 10^−2 | (9.2 ± 0.3) × 10^−2 | 102 to 104 | (9.0 ± 0.3) × 10^−2 | (8.0 ± 0.3) × 10^−2 | (10.1 ± 3.2) × 10^−2 | highly effective | – | – | –
C[C@H](NC(=O)Cc1cc(F)cc(F)c1)C(=O)N[C@H](C(=O)OC(C)(C)C)c1ccccc1 [DAPT, reference compound] | 1.61 | – | (8.3 ± 0.2) × 10−2 | (6.4 ± 0.1) × 10−2 | (5.5 ± 0.3) × 10−2 | – | (65.4 ± 2.8) × 10−2 | (62.1 ± 2.8) × 10−2 | (58.3 ± 1.9) × 10−2 | – | 2.5 | 2.6 | 2.2
C[C@H](NC(=O)[C@@H](O)c1cc(F)cc(F)c1)C(=O)N[C@@H]1C(=O)N(C)c2ccccc2-c2ccccc21 [LY-411575, reference compound] | 1.85 | – | (8.2 ± 0.1) × 10^−2 | (6.0 ± 0.1) × 10^−2 | (4.1 ± 0.2) × 10^−2 | – | (64.0 ± 2.4) × 10^−2 | (54.7 ± 2.0) × 10^−2 | (57.2 ± 1.2) × 10^−2 | – | 2.3 | 2.5 | 2
CC(C)[C@H](O)C(=O)N[C@@H](C)C(=O)N[C@@H]1C(=O)N(C)CCc2ccccc21 [LY-450139, reference compound] | 0.11 | – | (9.4. ± 0.3) × 10^−2 | (5.1 ± 0.1) × 10^−2 | (5.4 ± 0.2) × 10^−2 | – | (65.9 ± 2.3) × 10^−2 | (60.0 ± 1.6) × 10^−2 | (58.8 ± 2.5) × 10^−2 | – | 1.6 | 1.8 | 1.4
C[C@@H](C(=O)O)c1ccc(-c2ccccc2)c(F)c1 [R-FLU, (R)-enantiomer of flurbiprofen, reference compound] | 1.82 | ≥ 2 | (20.5 ± 0.7) × 10^−2 | (19.1 ± 0.5) × 10^−2 | (14.1 ± 0.7) × 10^−2 | – | (60.0 ± 1.3) × 10^−2 | (54.5 ± 2.3) × 10^−2 | (52.1 ± 2.1) × 10^−2 | – | 2.4 | 2.1 | 1.6
C[C@H](C(=O)O)c1ccc(-c2ccccc2)c(F)c1 [S-Flurbiprofen, reference compound] | – | – | (18.8. ± 0.6) × 10^−2 | (19.0 ± 0.7) × 10^−2 | (15.4 ± 0.3) × 10^−2 | – | (60.6 ± 2.5) × 10^−2 | (65.2 ± 1.8) × 10^−2 | (53.2 ± 1.9) × 10^−2 | – | – | – | –
